Assay results as given in article PMC11227529, “An in-situ peptide-antibody self-assembly to block CD47 and CD24 signaling enhances macrophage-mediated phagocytosis and anti-tumor immune responses” (Nature Communications, 2024).
Read-outs that look alike come from different tables or passages of the source.

Assays:
4T1 subcutaneous tumor = assay: Ex vivo NIR fluorescence of tumor and major organs, 48 h; assay type: in vivo, mouse
Source text: (§1) After the intravenous administration of free Cy5.5, ^Cy5.5SAMIs, and ^Cy5.5PAC-SABIs, the mice were euthanized at the 48-h mark, and the heart, liver, spleen, lung, kidney, and tumor were harvested for ex vivo imaging (Fig. 5e, f). […] Despite the observed retention in metabolic organs such as the liver and kidney, distinct variations in tissue distribution were noted between ^Cy5.5SAMIs and ^Cy5.5PAC-SABIs (Fig. 5e, f and Supplementary Fig. 30). Specifically, ^Cy5.5PAC-SABIs achieved a marked selective enrichment in both BC and PC tumors. […] The discernible dissimilarity between these two molecules could be attributed to the presence of targeted ligands and EISA, which augmented the precise recognition of ^Cy5.5PAC-SABIs toward cancer cells and facilitated their proficient molecular assembly. To further observe the distribution of ^Cy5.5PAC-SABIs in the BC and PC tissues, we analyzed the Cy5.5 fluorescence of tumor sections. […] Moreover, we employed SEM imaging to visualize the in situ self-assembly morphology of PAC-SABIs.
(§2) To obtain breast and pancreatic subcutaneous xenografts, 1 × 10^6 4T1 or PAN02 cells were implanted into the right hind limb of BALB/c and C57BL/6 mice, respectively. When the tumor size reached ≈ 50 mm^3, mice were randomly sorted into free Cy5.5, ^Cy5.5SAMIs, and ^Cy5.5PAC-SABIs groups. The 4T1 and PAN02 tumor-bearing mice were correspondingly intravenously injected with free Cy5.5, ^Cy5.5SAMIs, and ^Cy5.5PAC-SABIs (the dose of Cy5.5 was 1 mg/kg) for in vivo fluorescence imaging with IVIS system (Perkin Elmer, USA). Then, the mice were sacrificed to collect the major organs (heart, liver, spleen, lung, and kidney) and tumors for ex vivo fluorescence imaging. Finally, the 4T1 and PAN02 tumors were embedded in Tissue-Tek OCT compound (Sakura, Japan), and cryosections of 8 µm thickness were prepared. The Cy5.5 signal was detected using a fluorescence microscope (Nikon, Japan).
(§3) Supplementary Fig. 30 Quantification analysis of the ex vivo NIR fluorescence intensity in tumors and major organs. a Quantitative calculation of average fluorescence signal in 4T1 tumor and major organ area. The error bars represent the mean ± SD (n = 3 mice; ****p < 0.0001; the p value was analyzed by a two-tailed unpaired Student’s t-test).b Quantitative calculation of average fluorescence signal in PAN02 tumor and major organ area. The error bars represent the mean ± SD (n = 3 mice; ****p < 0.0001; the p value was analyzed by a two-tailed unpaired Student’s t-test).Source data are provided as a Source Data file.
(§4) (1 picture or pasted object on this page, not shown here)

PAN02 subcutaneous tumor = assay type: in vivo, mouse
Source text: as §1, §2, §3, §4

Question: For cyanine 5.5 [free Cy5.5], which “ex vivo NIR fluorescence accumulation” value (4T1 subcutaneous tumor; 4T1 and PAN02 tumor-bearing mice, 48 h after i.v. injection, tumors and major organs) is on record?
Answer: negligible accumulation in the tumors and major organs

Question: And the Average radiant efficiency (4T1 subcutaneous tumor; 4T1 tumor, replicate 1)?
Answer: 0.156 × 10^3 P/Sec

Question: And the Average radiant efficiency (4T1 subcutaneous tumor; 4T1 tumor, replicate 2)?
Answer: 0.054 × 10^3 P/Sec

Question: What about the Average radiant efficiency (4T1 subcutaneous tumor; 4T1 tumor, replicate 3) of the same substance?
Answer: 0.174 × 10^3 P/Sec

Question: What about the Average radiant efficiency (4T1 subcutaneous tumor; Heart, 4T1 model, replicate 1) of the same substance?
Answer: 0.085 × 10^3 P/Sec

Question: And the Average radiant efficiency (4T1 subcutaneous tumor; Heart, 4T1 model, replicate 2)?
Answer: 0.174 × 10^3 P/Sec

Question: What about the Average radiant efficiency (4T1 subcutaneous tumor; Heart, 4T1 model, replicate 3) of the same substance?
Answer: 0.168 × 10^3 P/Sec

Question: What about the Average radiant efficiency (4T1 subcutaneous tumor; Kidney, 4T1 model, replicate 1) of the same substance?
Answer: 0.115 × 10^3 P/Sec

Question: What about the Average radiant efficiency (4T1 subcutaneous tumor; Kidney, 4T1 model, replicate 2) of the same substance?
Answer: 0.12 × 10^3 P/Sec

Question: What about the Average radiant efficiency (4T1 subcutaneous tumor; Kidney, 4T1 model, replicate 3) of the same substance?
Answer: 0.073 × 10^3 P/Sec

Question: And the Average radiant efficiency (4T1 subcutaneous tumor; Liver, 4T1 model, replicate 1)?
Answer: 0.118 × 10^3 P/Sec

Question: What about the Average radiant efficiency (4T1 subcutaneous tumor; Liver, 4T1 model, replicate 2) of the same substance?
Answer: 0.061 × 10^3 P/Sec

Question: What about the Average radiant efficiency (4T1 subcutaneous tumor; Liver, 4T1 model, replicate 3) of the same substance?
Answer: 0.22 × 10^3 P/Sec

Question: What about the Average radiant efficiency (4T1 subcutaneous tumor; Lung, 4T1 model, replicate 1) of the same substance?
Answer: 0.137 × 10^3 P/Sec

Question: What about the Average radiant efficiency (4T1 subcutaneous tumor; Lung, 4T1 model, replicate 2) of the same substance?
Answer: 0.09 × 10^3 P/Sec

Question: What about the Average radiant efficiency (4T1 subcutaneous tumor; Lung, 4T1 model, replicate 3) of the same substance?
Answer: 0.095 × 10^3 P/Sec

Question: What about the Average radiant efficiency (4T1 subcutaneous tumor; Spleen, 4T1 model, replicate 1) of the same substance?
Answer: 0.157 × 10^3 P/Sec

Question: What about the Average radiant efficiency (4T1 subcutaneous tumor; Spleen, 4T1 model, replicate 2) of the same substance?
Answer: 0.112 × 10^3 P/Sec

Question: And the Average radiant efficiency (4T1 subcutaneous tumor; Spleen, 4T1 model, replicate 3)?
Answer: 0.069 × 10^3 P/Sec

Question: And the Average radiant efficiency (PAN02 subcutaneous tumor; Heart, PAN02 model, replicate 1)?
Answer: 0.069 × 10^3 P/Sec

Question: What about the Average radiant efficiency (PAN02 subcutaneous tumor; Heart, PAN02 model, replicate 2) of the same substance?
Answer: 0.108 × 10^3 P/Sec

Question: What about the Average radiant efficiency (PAN02 subcutaneous tumor; Heart, PAN02 model, replicate 3) of the same substance?
Answer: 0.122 × 10^3 P/Sec

Question: And the Average radiant efficiency (PAN02 subcutaneous tumor; Kidney, PAN02 model, replicate 1)?
Answer: 0.064 × 10^3 P/Sec

Question: What about the Average radiant efficiency (PAN02 subcutaneous tumor; Kidney, PAN02 model, replicate 2) of the same substance?
Answer: 0.137 × 10^3 P/Sec

Question: What about the Average radiant efficiency (PAN02 subcutaneous tumor; Kidney, PAN02 model, replicate 3) of the same substance?
Answer: 0.152 × 10^3 P/Sec

Question: And the Average radiant efficiency (PAN02 subcutaneous tumor; Liver, PAN02 model, replicate 1)?
Answer: 0.094 × 10^3 P/Sec

Question: What about the Average radiant efficiency (PAN02 subcutaneous tumor; Liver, PAN02 model, replicate 2) of the same substance?
Answer: 0.126 × 10^3 P/Sec

Question: And the Average radiant efficiency (PAN02 subcutaneous tumor; Liver, PAN02 model, replicate 3)?
Answer: 0.145 × 10^3 P/Sec

Question: What about the Average radiant efficiency (PAN02 subcutaneous tumor; Lung, PAN02 model, replicate 1) of the same substance?
Answer: 0.056 × 10^3 P/Sec

Question: What about the Average radiant efficiency (PAN02 subcutaneous tumor; Lung, PAN02 model, replicate 2) of the same substance?
Answer: 0.103 × 10^3 P/Sec

Question: What about the Average radiant efficiency (PAN02 subcutaneous tumor; Lung, PAN02 model, replicate 3) of the same substance?
Answer: 0.159 × 10^3 P/Sec

Question: And the Average radiant efficiency (PAN02 subcutaneous tumor; PAN02 tumor, replicate 1)?
Answer: 0.125 × 10^3 P/Sec

Question: What about the Average radiant efficiency (PAN02 subcutaneous tumor; PAN02 tumor, replicate 2) of the same substance?
Answer: 0.056 × 10^3 P/Sec

Question: And the Average radiant efficiency (PAN02 subcutaneous tumor; PAN02 tumor, replicate 3)?
Answer: 0.141 × 10^3 P/Sec

Question: And the Average radiant efficiency (PAN02 subcutaneous tumor; Spleen, PAN02 model, replicate 1)?
Answer: 0.046 × 10^3 P/Sec

Question: And the Average radiant efficiency (PAN02 subcutaneous tumor; Spleen, PAN02 model, replicate 2)?
Answer: 0.093 × 10^3 P/Sec

Question: What about the Average radiant efficiency (PAN02 subcutaneous tumor; Spleen, PAN02 model, replicate 3) of the same substance?
Answer: 0.157 × 10^3 P/Sec
